According to patent EP0022634A1, “Acylated indole derivatives, processes for their preparation and pharmaceutical compositions and drugs comprising them” (TEIJIN LIMITED, priority 1979, dated 1981):
Converted amounts (≈) assume the structure as drawn.

Tests used:
[1] = test system: platelet aggregation; assay: in vitro platelet aggregation inhibiting activity (sodium arachidonate as aggregating agent); assay type: cell-based; conditions: Cavia porcellus, Platelet, guinea pigs PRP, final concentration 0.1 millimole, minimum final concentration whose inhibiting rate exceeded 50 %, read-out: IC50
Protocol: The platelet aggregation inhibiting activities in vitro of test drugs including the acylated indole derivatives of this invention were assayed using guinea pigs PRP.
As an aggregating agent, sodium arachidonate having a final concentration of 0.1 millimole was used.
The citrated blood was centrifuged at 1000 rpm for 10 minutes at room temperature, and the supernatant liquid (PRP) was separated.
The resulting PRP was stored at room temperature, and used as early as possible. PRP stored for more than 4 hours was not used.
A compound having a free carboxylic acid as a residue, such as Indomethacin and Ibprofen, was dissolved in O.lM NaHC03 to provide a sodium salt solution having a concentration of 10 mg/ml. The solution was similarly diluted with physiological saline to prepare a solution of a test drug.
The solution was diluted with physiological saline to form a 1mM solution which was used in the test.
50 µℓ of physiological saline and 50 µℓ of the aggregating agent solution were added to 400 µℓ of PRP which had been warmed in a cuvette at 37°C in an aggregometer to aggregate the platelet. The aggregation curve was recorded for 3 minutes by an aggregometer (a product of Bryston Company). The maximum degree of aggregation in this platelet aggregation was defined as the maximum degree of aggregation in the blank.
Then, 50 µℓ of a 1mM solution of sodium arachidonate was added, and the platelet aggregation curve was recorded in the same way as in (1) above. From the curve, the maximum degree of aggregation was calculated, and the inhibiting rate was calculated in accordance with the following equation. Maximum degree of aggregation Inhibiting 100 - in the Ibprofen-added system 100 rate (%) Maximum degree of aggregation in the blank
If these inhibiting rates are not attained, the concentration of the solution of sodium arachidonate is not suitable, and therefore, its concentration should be re-adjusted, and the test shall be performed again.
50 µℓ of the test compound solution was added to 400 µℓ of PRP, and the mixture was pre-incubated in the same way as in(2) above. Then, 50 µℓ of the solution of sodium arachidonate having its concentration adjusted in (2) was added, and the aggregation curve was recorded for 3 minutes. The maximum degree of aggregation of platelet within this period was measured, and the rate of inhibition was calculated from the following equation. […] Maximum degree of aggregation Inhibiting _ 100 - in the drug-added system x 100 rate (%) Maximum degree of aggregation in the blank
For details of the in vitro platelet aggregation inhibiting test, see H. M. Davis, J. Phyllis, K. Paul and W. Terry: Thromb. […] Haemos.

[2] = test system: platelet aggregation; assay: extra vivo platelet aggregation inhibiting activity after oral administration, sodium arachidonate as aggregating agent; assay type: in vivo, guinea pigs; conditions: Cavia porcellus, 0.03 mM sodium arachidonate; for inhibition at 10 mg/kg: oral dosage 10 mg/kg; for inhibition at 1 mg/kg: oral dosage 1 mg/kg
Protocol: (§1) The platelet aggregation inhibiting activities extra vivo of drugs sampled at random were examined using guinea pigs.
(§2) The drugs were used dissolved in propylene glycol to a concentration of 1 mg/ml (when the dosage was 1 mg/kg), 10 mg/ml (when the dosage was 10 mg/kg), and 30 mg/ml (when the dosage was 30 mg/kg). The drugs were administered orally to male Hartley guinea pigs (three in a group) having a body weight of 300 to 350 g. Propylene glycol was administered to a control group.
(§3) One hour, or 4 hours after the administration, citrated blood was taken out from the subject by cardiac puncture.
(§4) The guinea pigs were caused to fast overnight before use.
(§5) The inhibiting rate of the test drugs was measured as follows: • 450 µℓ of PRP was put into a cuvette of an aggregometer, and then 50 µℓ of the aggregating agent was added. The aggregation curve was recorded for 3 minutes, and the maximum degree of aggregation was measured. As a blank, the maximum degree of aggregation of PRP of the group of guinea pigs to which propylene glycol had been administered was measured. The rate of inhibition was calculated from the following equation. [formula]
(§6) As the aggregating agent, 0.03 mM (final concentration sodium arachidonate and 5 µg/ml (final concentration) collagen floating solution were used.
For details of the extra vivo platelet aggregation inhibiting test, see Davis. H. M., Phyllis, J., Paul, K and Terry, W.: Thromb. […] Haemos.

[3] = test system: mucous membrane of the stomach; assay: Action of causing trouble to the mucous membrane of the stomach (ulcer index); assay type: in vivo, Male S.D. rats; conditions: for Incidence / Ulcer Index (mm ± S.E.): fasted rats
Protocol: Male S.D. rats (7 weeks old) were caused to fact for 24 hours while allowing them to drink water freely. A test compound dissolved in propylene glycol was orally administered to these rats, and these rats were kept while causing them to fast. Then, the rats were knocked out to death, and lesions generated in the stomach were measured in the following manner.
Ten minutes before killing the rats, 1% Evans blue was intravenously injected to the rats in a dose of 0.5 ml/rat to stain their body. Then, the rats were knocked out to death, and the stomack was taken out from each rat. 12 ml of 1% formalin was injected into the stomack to inflate it. The stomach was then dipped for more than 10 minutes in a 1% formalin solution, and fixed. After fixing, the stomach was incised along the glandular portion, and the length of a dye-leaked portion that occurred in the stomach was measured under a solid microscope, and defined as the ulcer index (mm).
For details of the test on the action of causing trouble to the mucous membrane of the stomach, see E. Adami, E. Marazzi-Uberti, and C. Turba, Arch, int. Pharmacadyn., 147, 113 (1964).

[4] = test system: platelet aggregation; assay: extra vivo platelet aggregation inhibiting activity after oral administration, collagen as aggregating agent; assay type: in vivo, guinea pigs; conditions: Cavia porcellus, po
Protocol: The collagent floating solution made by Hormone Company of west Germany was diluted with physiological saline to a concentration of 100 µg/ml for use in the test.
as §1, §2, §3, §4, §5, §6
For details of the extra vivo platelet aggregation inhibiting test, see Davis. H. M., Phyllis, J., Paul, K and Terry, W.: Thromb. Res. 11, 217-226 (1977) and Anderson R. E. and Foulks J. G.: Thromb. Haemos. 36, 343-359 (1976).

[5] = test system: platelet aggregation; assay: in vitro platelet aggregation inhibiting activity (sodium arachidonate as aggregating agent); assay type: cell-based, guinea pigs; conditions: general statement on investigations of the present inventors; test not specified
[6] = blood taken 1 hour after administration, read-out: Rate of inhibition of platelet aggregation, Sodium arachidonate, After 1 hour
[7] = blood taken 4 hours after administration, read-out: Rate of inhibition of platelet aggregation, Sodium arachidonate, After 4 hours
[8] = oral dosage 200 mg/kg in propylene glycol
[9] = oral dosage 400 mg/kg in propylene glycol
[10] = 1 h, read-out: Rate of inhibition of platelet aggregation, Collagen, After 1 hour
[11] = 4 h, read-out: Rate of inhibition of platelet aggregation, Collagen, After 4 hours
[12] = oral dosage 100 mg/kg in propylene glycol

Compound | IC50 [1] [µg/mL] | inhibition at 10 mg/kg [2, 6] [%] | inhibition at 10 mg/kg [2, 7] [%] | Incidence [3, 9] [%] | Ulcer Index (mm ± S.E.) [3, 9] [mm] | inhibition at 10 mg/kg [4, 10] [%] | inhibition at 10 mg/kg [4, 11] [%] | also measured
CCOCC(C)n1c(C)c(C(=O)c2ccccc2)c2ccccc21 (centres unmarked) [(302), 3-Benzoyl-1-(1-ethoxy-2-propyl)-2-methylindole] | 0.055 (≈ 0.171 µM) | 100 | 100 | 50 | 0.9 ± 0.3 | – | – | Incidence [3, 8]: 33.3%; Ulcer Index (mm ± S.E.) [3, 8]: 0.3 ± 0.2 mm
COCC(C)n1c(C)c(C(=O)c2ccccc2)c2ccccc21 (centres unmarked) [(300), 3-Benzoyl-1-(1-methoxy-2-propyl)-2-methylindole] | 0.055 (≈ 0.179 µM) | – | – | 66.7 | 1.4 ± 0.5 | – | – | inhibition at 1 mg/kg [2, 6]: 51.3%; inhibition at 1 mg/kg [2, 7]: 67.5%; inhibition at 1 mg/kg [4, 10]: 100%; inhibition at 1 mg/kg [4, 11]: 71.4%; Incidence [3, 12]: 40%; Ulcer Index (mm ± S.E.) [3, 12]: 1.1 ± 0.5 mm; Incidence [3, 8]: 55.6%; Ulcer Index (mm ± S.E.) [3, 8]: 1.2 ± 0.3 mm
CCCCC(C)n1c(C)c(C(=O)c2ccccc2)c2ccccc21 (centres unmarked) [(705), 3-Benzoyl-1-(2-hexyl)-2-methylindole] | – | – | – | 0 | 0 | – | – | –
CCCCCC(C)n1c(C)c(C(=O)c2ccccc2)c2ccccc21 (stereo not drawn) [(706), 3-Benzoyl-l-(2-heptyl)-2-methylindole] | – | – | – | 16.7 | 0.1 | – | – | –
CC(C)c1[nH]c2ccccc2c1C(=O)c1cccnc1 [drawing 4, reference compound] | – | – | – | – | – | – | – | action of inhibiting platelet aggregation [5]: has an action of inhibiting platelet aggregation; tendency to induce ulcer formation ([3]; general statement on investigations of the present inventors, test not specified): unnegligible tendency to induce ulcer formation
CCOCCC(C)n1c(C)c(C(=O)c2ccccc2)c2ccccc21 (centres unmarked) [(307), 3-Benzoyl-1-(4-ethoxy-2-butyl)-2-methylindole] | 0.25 (≈ 0.745 µM) | 100 | 100 | – | – | 98.3 | 100 | –
COCC(C)n1c(C)c(C(=O)c2ccccc2)c2cc(OC)ccc21 (centres unmarked) [(318), 3-Benzoyl-5-methoxy-1-(1-methoxy-2-propyl)-2-methylindole] | 0.75 (≈ 2.22 µM) | 100 | 14 | – | – | 97.7 | 0.5 | –
COc1ccc2c(c1)c(C(=O)c1ccccc1)c(C)n2C(C)CO (centres unmarked) [(116), 3-benzoyl-1-(1-hydroxy-2-propyl)-5-methoxy-2-methylindole] | 0.5 (≈ 1.55 µM) | 100 | 0.7 | – | – | 100 | 0 | –
CC(=O)C(C)n1c(C)c(C(=O)c2ccccc2)c2ccccc21 (stereo not drawn) [(800), 3-Benzoyl-2-methyl-l-(3-oxo-2-butyl)indole] | 0.05 to 0.1 (≈ 0.164 to 0.327 µM) | 100 | 66.7 | – | – | 100 | 48.4 | –
Cc1c(C(=O)c2ccccc2)c2ccccc2n1C(C)CCO (stereo not drawn) [(105), 3-Benzoyl-l-(4-hydroxy-2-butyl)-2-methylindole] | 0.075 (≈ 0.244 µM) | 100 | 100 | – | – | 100 | 100 | –
CCSCC(C)n1c(C)c(C(=O)c2ccccc2)c2ccccc21 (centres unmarked) [(400), 3-Benzoyl-1-(1-ethylthio-2-propyl)-2-methylindole] | 0.5 (≈ 1.48 µM) | 100 | 67.4 | – | – | 100 | 100 | –
CCC(COC(C)=O)n1c(C)c(C(=O)c2ccccc2)c2ccccc21 (centres unmarked) [(205), 1-(1-acetoxy-2-butyl)-3-benzoyl-2-methylindole] | 0.1 (≈ 0.286 µM) | 100 | 85.3 | – | – | 100 | 93.8 | –
CC(C)c1[nH]c2ccccc2c1C(=O)c1cccnc1 [Comparison 3, reference compound] | 0.075 (≈ 0.284 µM) | – | – | 100 | 7.9 ± 2.3 | – | – | Incidence [3, 12]: 66.7%; Ulcer Index (mm ± S.E.) [3, 12]: 1.5 ± 0.6 mm
Cc1c(C(=O)c2ccccc2)c2cc(O)ccc2n1C(C)CO (centres unmarked) [(117), 3-Benzoyl-5-hydroxy-1-(1-hydroxy-2-propyl)-2-methylindole] | 0.25 (≈ 0.808 µM) | 100 | 8.6 | – | – | 72.1 | 2.2 | –
CCSCCC(C)n1c(C)c(C(=O)c2ccccc2)c2ccccc21 (centres unmarked) [(409), 3-Benzoyl-1-(4-ethylthio-2-butyl)-2-methylindole] | 0.25 (≈ 0.711 µM) | 100 | 48.8 | – | – | 100 | 100 | –
